Measurements: article PMC7216583 (Parasites & Vectors, 2020)
Structures can show the parent of a compound that is named as a salt. Where two headings read alike, the source gives them in different places.

What was measured:
[1] = tested on: Toxoplasma gondii RH-2F tachyzoites; assay: microbe, parasite or virus in culture; conditions: 72 h
HSP90α = conditions: read-out: IC50 HSP90α; ref library vendor description; cited from earlier work
[2] = target: angiotensin II type 1 (AT1) receptor; design: method as in vendor brief description; conditions: ref vendor brief description; cited from earlier work
RGS4 = tested on: RGS4; design: method as in vendor brief description; conditions: ref vendor brief description; cited from earlier work
GSK-3α = tested on: GSK-3α; design: method as in vendor brief description; conditions: ref vendor brief description; cited from earlier work
mGlu5 receptor = target: mGlu5 receptor; design: method as in vendor brief description; conditions: ref vendor brief description; cited from earlier work
[3] = tested on: human neutrophil elastase; design: method as in vendor brief description; conditions: ref vendor brief description; cited from earlier work
matriptase = target: matriptase; design: method as in vendor brief description; conditions: ref vendor brief description; cited from earlier work
proteasome = tested on: proteasome; design: method as in vendor brief description; conditions: ref vendor brief description; cited from earlier work
[4] = target: HIV reverse transcriptase; design: method as in vendor brief description; conditions: ref vendor brief description; cited from earlier work
CETP = tested on: CETP; design: method as in vendor brief description; conditions: ref vendor brief description; cited from earlier work
GluR1 and GluR3 = tested on: GluR1 and GluR3; design: method as in vendor brief description; conditions: ref vendor brief description; cited from earlier work
IKK-2 = tested on: IKK-2; design: method as in vendor brief description; conditions: ref vendor brief description; cited from earlier work
IKK complex = tested on: IKK complex; design: method as in vendor brief description; conditions: ref vendor brief description; cited from earlier work
IKK-1 = tested on: IKK-1; design: method as in vendor brief description; conditions: ref vendor brief description; cited from earlier work
in vitro = conditions: human; for viability at 72 h: Host viability (%) mean
[5] = target: HIF-1α prolyl hydroxylase-2 (PHD2); design: method as in vendor brief description; conditions: ref vendor brief description; cited from earlier work
β-adrenoceptor = target: β-adrenoceptor; design: method as in vendor brief description; conditions: ref vendor brief description; cited from earlier work
LPA3 [6] = target: LPA3; design: method as in library vendor description; conditions: ref library vendor description; cited from earlier work
LPA3 [7] = target: LPA3; design: method as in vendor brief description; conditions: ref vendor brief description; read-out: Ki LPA3-induced inositol phosphate production; cited from earlier work
LPA2 = target: LPA2; design: method as in library vendor description; conditions: ref library vendor description; cited from earlier work
LPA1 [8] = target: LPA1; design: method as in vendor brief description; conditions: ref vendor brief description; read-out: Ki LPA1-induced inositol phosphate production; cited from earlier work
LPA1 [9] = target: LPA1; design: method as in library vendor description; conditions: ref library vendor description; cited from earlier work
5-HT7 receptor = target: 5-HT7 receptor; design: method as in vendor brief description; conditions: ref vendor brief description; cited from earlier work
5-HT2A = tested on: 5-HT2A; design: method as in vendor brief description; conditions: ref vendor brief description; cited from earlier work
5-HT1A = tested on: 5-HT1A; design: method as in vendor brief description; conditions: ref vendor brief description; cited from earlier work
noradrenaline α2C = tested on: noradrenaline α2C; design: method as in vendor brief description; conditions: ref vendor brief description; cited from earlier work
dopamine D2 = tested on: dopamine D2; design: method as in vendor brief description; conditions: ref vendor brief description; cited from earlier work
NOD1 = tested on: NOD1; design: method as in vendor brief description; conditions: ref vendor brief description; cited from earlier work
P2Y6 receptor = conditions: read-out: IC50 P2Y6 receptor; ref vendor brief description; cited from earlier work
V1 receptor = target: V1 receptor; design: method as in vendor brief description; conditions: ref vendor brief description; cited from earlier work
V2 receptor = target: V2 receptor; design: method as in vendor brief description; conditions: ref vendor brief description; cited from earlier work
Mdm2 = tested on: Mdm2; design: method as in library vendor description; conditions: ref library vendor description; cited from earlier work
PARP2 = tested on: PARP2; design: method as in library vendor description; conditions: ref library vendor description; cited from earlier work
ChK2 = tested on: ChK2; design: method as in vendor brief description; conditions: ref vendor brief description; cited from earlier work
Fms = tested on: Fms; design: method as in vendor brief description; conditions: ref vendor brief description; cited from earlier work
Yes = tested on: Yes; design: method as in vendor brief description; conditions: ref vendor brief description; cited from earlier work
VEGFR-2 = tested on: VEGFR-2; design: method as in vendor brief description; conditions: ref vendor brief description; cited from earlier work
CYP3A4 (P450) = tested on: CYP3A4 (P450); design: method as in vendor brief description; conditions: ref vendor brief description; cited from earlier work
5-HT4b = target: 5-HT4b; design: method as in vendor brief description; conditions: ref vendor brief description; cited from earlier work
5-HT4a = target: 5-HT4a; design: method as in vendor brief description; conditions: ref vendor brief description; cited from earlier work
Factor Xa = tested on: Factor Xa; design: method as in vendor brief description; conditions: ref vendor brief description; cited from earlier work
[10] = target: histamine 1 (H1) receptor; design: method as in vendor brief description; conditions: ref vendor brief description; cited from earlier work
PAFR = target: PAFR; design: method as in vendor brief description; conditions: ref vendor brief description; cited from earlier work
AhR = conditions: cited from earlier work
GSK-3β = tested on: GSK-3β; design: method as in vendor brief description; conditions: ref vendor brief description; cited from earlier work
CA IX = tested on: CA IX; design: method as in vendor brief description; conditions: ref vendor brief description; cited from earlier work
CA XII = tested on: CA XII; design: method as in vendor brief description; conditions: ref vendor brief description; cited from earlier work
mGlu4 = tested on: mGlu4; design: method as in vendor brief description; conditions: ref vendor brief description; cited from earlier work
Abl = tested on: Abl; design: method as in vendor brief description; conditions: ref vendor brief description; read-out: IC50 Abl; cited from earlier work
VEGFR1 = tested on: VEGFR1; design: method as in vendor brief description; conditions: ref vendor brief description; cited from earlier work
Src = tested on: Src; design: method as in vendor brief description; conditions: ref vendor brief description; cited from earlier work
[11] = read-out: Parasite inhibition (%) mean, preliminary screen, mean
[12] = read-out: Parasite inhibition (%) mean, preliminary screen of compound library, mean

Compound: CCNC(=O)c1noc(-c2cc(C(C)C)c(O)cc2O)c1-c1ccc(CN2CCOCC2)cc1 [AUY922 (NVP-AUY922)]
- inhibition of growth at 5 µM [1, 11]: 8.2%

Compound: CCOc1nc2cccc(C(=O)O)c2n1Cc1ccc(-c2ccccc2-c2nc(=O)o[nH]2)cc1 [Azilsartan (TAK-536)]
- inhibition of growth at 5 µM [1, 12]: 4.6%
- IC50 [2]: 2.6 nM

Compound: Cc1ccc(-n2sc(=O)n(Cc3ccc(F)cc3)c2=O)cc1 [CCG 50014]
- IC50 (RGS4): 30 nM
- inhibition of growth at 5 µM [1, 12]: 1.4%

Compound: Cc1c[nH]c(-c2cnc(NCCNc3ccc(C#N)cn3)nc2-c2ccc(Cl)cc2Cl)n1 [CHIR-99021 (CT99021) HCl]
- inhibition of growth at 5 µM [1, 12]: 43.9%
- IC50 (GSK-3α): 10 nM

Compound: Cc1nc(C#Cc2ccnc(Cl)c2)c(C)n1-c1ccc(OC(F)(F)F)cc1 [CTEP]
- inhibition of growth at 5 µM [1, 12]: 2.4%
- IC50 (mGlu5 receptor): 2.2 nM

Compound: CN(C)C(=O)COC(=O)Cc1ccc(OC(=O)c2ccc(NC(=N)N)cc2)cc1 [Camostat Mesilate (FOY-305)]
- IC50 [3]: 200 nM
- inhibition of growth at 5 µM [1, 12]: 2.5%
- IC50 (matriptase): 500 nM

Compound: CC(C)C[C@H](NC(=O)[C@H](CCc1ccccc1)NC(=O)CN1CCOCC1)C(=O)N[C@@H](Cc1ccccc1)C(=O)N[C@@H](CC(C)C)C(=O)[C@@]1(C)CO1 [Carfilzomib (PR-171)]
- IC50 (proteasome): < 5 nM
- inhibition of growth at 5 µM [1, 12]: -3.5%

Compound: Cc1cc(C)c(Nc2ccnc(Nc3ccc(C#N)cc3)n2)c(C)c1 [Dapivirine]
- inhibition of growth at 5 µM [1, 12]: 0.8%
- IC50 [4]: 24 nM

Compound: Cc1cc(C)c2c(c1)[C@@H](N(Cc1cc(C(F)(F)F)cc(C(F)(F)F)c1)c1nnn(C)n1)CCCN2C[C@H]1CC[C@H](C(=O)O)CC1 [Evacetrapib (LY2484595)]
- inhibition of growth at 5 µM [1, 12]: 22.6%
- IC50 (CETP): 5.5 nM

Compound: NCCCCCNCC12CC3CC(CC(C3)C1)C2 [IEM 1754 dihydrobroMide]
- IC50 (GluR1 and GluR3): 6000 nM
- inhibition of growth at 5 µM [1, 12]: 15.8%

Compound: O=C(c1ccc(Nc2nccc(-c3cc4ccccc4s3)n2)cc1)N1CCC(N2CCCC2)CC1 [IKK-16]
- IC50 (IKK-2): 40 nM
- IC50 (IKK complex): 70 nM
- inhibition of growth at 5 µM [1, 12]: 99.8%
- IC50 (IKK-1): 200 nM
- viability at 72 h (in vitro): 10.7%

Compound: O=C(O)CNC(=O)c1c(O)c2ccccc2n(Cc2ccccc2)c1=O [IOX2]
- inhibition of growth at 5 µM [1, 12]: 32.8%
- IC50 [5]: 21 nM

Compound: CCc1cc2c(cc1CC)CC(NC[C@H](O)c1ccc(O)c3[nH]c(=O)ccc13)C2 [Indacaterol Maleate]
- pKi β-adrenoceptor (β-adrenoceptor): Indacaterol is an ultra-long-acting β-adrenoceptor agonist with pKi of 7.36.
- inhibition of growth at 5 µM [1, 12]: -8.9%

Compound: Cc1noc(-c2ccc(CSCCC(=O)O)cc2)c1NC(=O)OC(C)c1ccccc1Cl (stereo not drawn) [Ki16425]
- Ki (LPA3 [6]): 930 nM
- Ki (LPA3 [7]): 930 nM
- Ki (LPA2): 6500 nM
- inhibition of growth at 5 µM [1, 11]: -25.5%
- Ki (LPA1 [8]): 340 nM
- Ki (LPA1 [9]): 340 nM

Compound: O=C1[C@@H]2[C@H]3CC[C@H](C3)[C@@H]2C(=O)N1C[C@@H]1CCCC[C@H]1CN1CCN(c2nsc3ccccc23)CC1 [Lurasidone HCl, reference compound]
- IC50 (5-HT7 receptor): 0.495 nM
- IC50 (5-HT2A): 2.03 nM
- IC50 (5-HT1A): 6.75 nM
- inhibition at 5 µM ([1]; read-out: Parasite inhibition (%) Mean ± SD): 80.4 ± 1.5%
- IC50 (noradrenaline α2C): 10.8 nM
- viability (in vitro): 86.9%
- viability at 5 µM (in vitro): 86.9 ± 1.7%

Compound: Cc1ccc(S(=O)(=O)n2c(N)nc3ccccc32)cc1 [ML130]
- inhibition of growth at 5 µM [1, 12]: 3.3%
- IC50 (NOD1): 560 nM

Compound: S=C=Nc1cccc(NC(=S)NCCCCNC(=S)Nc2cccc(N=C=S)c2)c1 [MRS 2578]
- IC50 (P2Y6 receptor): 37 nM
- inhibition of growth at 5 µM [1, 12]: 0.2%

Compound: Cc1ccccc1C(=O)Nc1ccc(C(=O)N2CCCC(N(C)C)c3ccccc32)cc1 (stereo not drawn) [Mozavaptan]
- IC50 (V1 receptor): 1200 nM
- IC50 (V2 receptor): 14 nM
- inhibition of growth at 5 µM [1, 12]: 3.1%

Compound: COc1ccc(C2=N[C@@H](c3ccc(Cl)cc3)[C@@H](c3ccc(Cl)cc3)N2C(=O)N2CCNC(=O)C2)c(OC(C)C)c1 [Nutlin-3]
- inhibition of growth at 5 µM [1, 11]: -1.5%

Compound: O=C(c1cc(Cc2n[nH]c(=O)c3ccccc23)ccc1F)N1CCN(C(=O)C2CC2)CC1 [Olaparib (AZD2281)]
- inhibition of growth at 5 µM ([1]; read-out: Parasite inhibition (%) mean): 28.2%
- IC50 (PARP2): 1 nM

Compound: Cn1cc(-c2[nH]c3cc(NC(=O)[C@H](N)C4CCCCC4)cc4c3c2C=NNC4=O)cn1 [PF 477736]
- IC50 (ChK2): 47 nM
- IC50 (Fms): 10 nM
- IC50 (Yes): 14 nM
- inhibition of growth at 5 µM [1, 12]: -0.5%
- IC50 (VEGFR-2): 8 nM

Compound: Cc1ccc(-c2c(-c3nn(C)c4ncnc(N5CC[C@H](N6CCCCC6)C5)c34)cnn2C)cc1 [PF-4981517]
- IC50 (CYP3A4 (P450)): 30 nM
- inhibition of growth at 5 µM [1, 12]: -8.9%

Compound: COCCCN1CCC(NC(=O)c2cc(Cl)c(N)c3c2OCC3)CC1 [Prucalopride]
- Ki (5-HT4b): 8 nM
- inhibition of growth at 5 µM [1, 12]: -7.6%
- Ki (5-HT4a): 2.5 nM

Compound: O=C(NCC1CN(c2ccc(N3CCOCC3=O)cc2)C(=O)O1)c1ccc(Cl)s1 (stereo not drawn) [Rivaroxaban (Xarelto)]
- inhibition of growth at 5 µM [1, 12]: 0.4%

Compound: Cc1cncc(CN2CCC(=C3c4ccc(Cl)cc4CCc4cccnc43)CC2)c1 [Rupatadine Fumarate]
- inhibition of growth at 5 µM [1, 12]: 0.2%
- Ki [10]: 102 nM
- Ki (PAFR): 550 nM

Compound: CC(C)n1cnc2c(NCCc3ccc(O)cc3)nc(-c3csc4ccccc34)nc21 [StemRegenin 1]
- IC50 (AhR): 127 nM
- inhibition of growth at 5 µM [1, 12]: 0.2%

Compound: Cn1sc(=O)n(Cc2ccccc2)c1=O [TDZD-8]
- IC50 (GSK-3β): 2000 nM
- inhibition of growth at 5 µM [1, 12]: 12.8%

Compound: NS(=O)(=O)c1ccc(NC(=O)Nc2ccc(F)cc2)cc1 [U-104]
- inhibition of growth at 5 µM [1, 12]: 5%

Compound: O=C(Nc1cccc(Cl)c1)c1ccccn1 [VU 0364770]
- EC50 (mGlu4): 1100 nM
- inhibition of growth at 5 µM [1, 12]: 1.8%

Compound: COc1cc2ncnc(Nc3ccc(Cl)cc3F)c2cc1OC [ZM 306416]
- IC50 (Abl): 1300 nM
- inhibition of growth at 5 µM [1, 12]: 70.2%
- viability at 72 h (in vitro; preliminary screen of compound library, mean): 76.6%
